Assay [1] has as its target T1, NLRP3 (Homo sapiens, UniProt Q96P20). Put plainly: Human whole blood IL1β release assay (LPS + nigericin, AlphaLisa IL-1β; HWB IC50). The following applies: IL-1β release. Also noted: Human whole blood in Li-heparin tubes was obtained from healthy donors from a volunteer donor panel; from tissue; host or cells: human whole blood from healthy donors. It is filed as cell-based. How it is done: For systemic delivery, the ability to inhibit NLRP3 when the compounds are present within the bloodstream is of great importance. For this reason, the NLRP3 inhibitory activity of a number of compounds in human whole blood was investigated in accordance with the following protocol.
Human whole blood in Li-heparin tubes was obtained from healthy donors from a volunteer donor panel. • 1. Plate out 80 μl of whole blood containing 1 μg/ml of LPS in 96-well, clear bottom cell culture plate (Corning #3585) • 2. Add 10 μl compound (8 points half-log dilution with 10 μM top dose) or vehicle (DMSO 0.1% FAC) to the appropriate wells • 3. Incubate for 3 hrs at 37° C., 5% CO2 • 4. Add 10 μl nigericin (Sigma #N7143) (10 μM FAC) to all wells • 5. Incubate for 1 hr at 37° C., 5% CO2 • 6. At the end of the incubation period, spin plates at 300×g for 5 mins to pellet cells and remove 20 μl of supernatant and add to 96-well v-bottom plates for IL-1β analysis (note: these plates containing the supernatants can be stored at −80° C. to be analysed at a later date) • 7. IL-1β was measured according to the manufacturer protocol (Perkin Elmer-AlphaLisa IL-1 Kit AL220F-5000) • 8. IC50 data is fitted to a non-linear regression equation (log inhibitor vs response-variable slope 4-parameters)

Assay [2] has as its target T1, NLRP3. Briefly: THP-1 cells pyroptosis assay (LPS + nigericin, resazurin readout; THP IC50). It is filed as cell-based. The arrangement: Seed THP-1 cells (25,000 cells/well) containing 1.0 μg/ml LPS in 40 μl of RPMI medium; host or cells: THP-1 cells. An outline of the steps:
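IC50 from 4-parameter fit of resazurin fluorescence (100 μM, 1-2 hrs), reflecting surviving cells after pyroptosis. LPS-primed (1 μg/ml) THP-1 cells in FBS-free RPMI got compound for 3 hrs at 37° C (top 10 μM, half-log, 8 points), then nigericin 5 μM for 1 hr.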

Where a name gives a salt, the structure may show the parent alone. Where only a bound is given, the exact number is not on record here.

T1 sequence (Q96P20 whole entry): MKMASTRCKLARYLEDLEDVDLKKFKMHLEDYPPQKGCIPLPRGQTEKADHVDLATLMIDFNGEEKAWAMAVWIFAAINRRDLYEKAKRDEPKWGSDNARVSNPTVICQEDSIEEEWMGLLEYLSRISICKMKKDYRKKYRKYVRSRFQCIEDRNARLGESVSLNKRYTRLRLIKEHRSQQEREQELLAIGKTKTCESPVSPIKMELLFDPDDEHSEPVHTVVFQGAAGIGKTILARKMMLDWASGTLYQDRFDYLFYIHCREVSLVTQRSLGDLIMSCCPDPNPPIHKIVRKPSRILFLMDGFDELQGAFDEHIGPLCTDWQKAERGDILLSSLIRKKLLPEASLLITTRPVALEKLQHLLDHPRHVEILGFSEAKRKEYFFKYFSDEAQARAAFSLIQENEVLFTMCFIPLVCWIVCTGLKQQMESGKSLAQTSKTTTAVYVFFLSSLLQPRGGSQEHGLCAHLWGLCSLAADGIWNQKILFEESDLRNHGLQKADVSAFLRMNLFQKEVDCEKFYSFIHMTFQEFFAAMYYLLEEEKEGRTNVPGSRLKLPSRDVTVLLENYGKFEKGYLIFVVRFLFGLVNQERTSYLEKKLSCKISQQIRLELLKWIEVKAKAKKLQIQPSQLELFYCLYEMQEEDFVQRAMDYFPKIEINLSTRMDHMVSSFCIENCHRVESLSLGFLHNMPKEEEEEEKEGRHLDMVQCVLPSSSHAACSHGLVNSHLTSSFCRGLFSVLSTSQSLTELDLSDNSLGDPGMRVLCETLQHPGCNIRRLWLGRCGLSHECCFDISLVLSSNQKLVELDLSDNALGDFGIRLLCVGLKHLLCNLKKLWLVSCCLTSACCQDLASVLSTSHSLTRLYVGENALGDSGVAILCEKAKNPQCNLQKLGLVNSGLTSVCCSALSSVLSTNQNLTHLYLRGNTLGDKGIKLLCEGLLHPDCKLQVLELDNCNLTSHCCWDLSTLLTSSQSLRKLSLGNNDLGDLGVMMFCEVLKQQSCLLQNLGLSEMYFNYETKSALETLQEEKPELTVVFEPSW

Regarding `COc1cc(-c2cc(F)cc(C(C)C)c2NC(=O)NS(=O)(=O)c2ccn(C(C)C)n2)ccn1` [Example 12, N-((4-Fluoro-2-iso-propyl-6-(2-methoxypyridin-4-yl)phenyl)carbamoyl)-1-iso-propyl-1H-pyrazole-3-sulfonamide, partial ammonium salt], the IC50 in assay [1] is not above 1000 nM; in assay [2], not above 500 nM. Taken in the same sequence, the figures for `CC(C)c1cc(F)cc(-c2ccnc(N)c2)c1NC(=O)NS(=O)(=O)c1ccn(C(C)C)n1` [Example 23, N-((2-(2-Aminopyridin-4-yl)-4-fluoro-6-isopropylphenyl)carbamoyl)-1-iso-propyl-1H-pyrazole-3-sulfonamide] were not above 1000 nM and not above 500 nM. As for `CCOc1cc(-c2cc(F)cc(C(C)C)c2NC(=O)NS(=O)(=O)c2ccn(C(C)C)n2)ccn1` [Example 24, N-((2-(2-Ethoxypyridin-4-yl)-4-fluoro-6-iso-propylphenyl)carbamoyl)-1-iso-propyl-1H-pyrazole-3-sulfonamide], the IC50 in assay [1] was not above 1000 nM; in assay [2], not above 500 nM. Taken in the same sequence, the figures for `CC(C)Oc1cc(-c2cc(F)cc(C(C)C)c2NC(=O)NS(=O)(=O)c2ccn(C(C)C)n2)ccn1` [Example 27, N-((4-Fluoro-2-(2-isopropoxypyridin-4-yl)-6-iso-propyl-phenyl)carbamoyl)-1-iso-propyl-1H-pyrazole-3-sulfonamide] were not above 5000 nM and not above 500 nM. Turning to `CC(C)c1cc(F)cc(-c2cncnc2)c1NC(=O)NS(=O)(=O)c1cc(C(=O)N(C)C)n(C)n1` [Example 32, 3-(N-((4-Fluoro-2-iso-propyl-6-(pyrimidin-5-yl)phenyl)carbamoyl)sulfamoyl)-N,N,1-trimethyl-1H-pyrazole-5-carboxamide, sodium salt], the IC50 in assay [1] and in assay [2] was not above 500 nM throughout. For the compound `CCN1CCC(S(=O)(=O)NC(=O)Nc2c(-c3ccncc3)ccc3c2CCC3)CC1` [Example 101, 1-Ethyl-N-((5-(pyridin-4-yl)-2,3-dihydro-1H-inden-4-yl)carbamoyl)piperidine-4-sulfonamide, potassium salt], the IC50 in assay [1] was not above 1000 nM. `COc1cc(-c2ccc3c(c2NC(=O)NS(=O)(=O)c2ccn(C(C)C)n2)CCC3)cc(C)n1` [Example 238, 1-Isopropyl-N-((5-(2-methoxy-6-methylpyridin-4-yl)-2,3-dihydro-1H-inden-4-yl)carbamoyl)-1H-pyrazole-3-sulfonamide, sodium salt]: the IC50 in assay [2] is not above 5000 nM.

For the compound `CC(C)n1ccc(S(=O)(=O)NC(=O)Nc2c(-c3cncn3C)ccc3c2CCC3)n1` [Example 240, 1-Isopropyl-N-((5-(1-methyl-1H-imidazol-5-yl)-2,3-dihydro-1H-inden-4-yl)carbamoyl)-1H-pyrazole-3-sulfonamide], the IC50 in assay [2] is not above 5000 nM. Take `CC(C)n1ccc(S(=O)(=O)NC(=O)Nc2c(-c3cncnc3)ccc3c2CCC3)n1` [Example 241, 1-Isopropyl-N-((5-(pyrimidin-5-yl)-2,3-dihydro-1H-inden-4-yl)carbamoyl)-1H-pyrazole-3-sulfonamide]: the IC50 in assay [2] was not above 5000 nM. With `O=C(Nc1c(C2CCOCC2)ccc2c1CCC2)NS(=O)(=O)c1ccn(C2CC2)n1` [Example 254, 1-Cyclopropyl-N-((5-(tetrahydro-2H-pyran-4-yl)-2,3-dihydro-1H-inden-4-yl)carbamoyl)-1H-pyrazole-3-sulfonamide], the IC50 in assay [2] is not above 5000 nM. Consider `COc1cc(-c2ccc3c(c2NC(=O)NS(=O)(=O)OC(C)C)CCC3)ccn1` [Example 256, Isopropyl (5-(2-methoxypyridin-4-yl)-2,3-dihydro-1H-inden-4-yl)carbamoylsulfamate, sodium salt], for which the half-inhibitory concentration (IC50) in assay [2] was not above 1000 nM.

On to `Cn1cc(-c2ccc3c(c2NC(=O)NS(=O)(=O)c2ccn(C4CC4)n2)CCC3)ccc1=O` [Example 268, 1-Cyclopropyl-N-((5-(1-methyl-6-oxo-1,6-dihydropyridin-3-yl)-2,3-dihydro-1H-inden-4-yl)carbamoyl)-1H-pyrazole-3-sulfonamide], for which, in assay [2], the IC50 is not above 5000 nM.

For `Cn1ccc(-c2ccc3c(c2NC(=O)NS(=O)(=O)c2ccn(C4CC4)n2)CCC3)cc1=O` [Example 272, 1-Cyclopropyl-N-((5-(1-methyl-2-oxo-1,2-dihydropyridin-4-yl)-2,3-dihydro-1H-inden-4-yl)carbamoyl)-1H-pyrazole-3-sulfonamide, sodium salt], the IC50 in assay [2] was not above 5000 nM.

As to `O=C(Nc1c2c(nn1-c1ccncc1)CCC2)NS(=O)(=O)c1ccn(C2CC2)n1` [Example 273, 1-Cyclopropyl-N-((2-(pyridin-4-yl)-2,4,5,6-tetrahydrocyclopenta[c]pyrazol-3-yl)carbamoyl)-1H-pyrazole-3-sulfonamide], the IC50 in assay [2] is not above 5000 nM. The same measure, in the same setting: the same measure for `CC(C)n1ccc(S(=O)(=O)NC(=O)Nc2c(-c3ccnc4c3CCO4)ccc3c2CCC3)n1` [Example 283, N-((5-(2,3-Dihydrofuro[2,3-b]pyridin-4-yl)-2,3-dihydro-1H-inden-4-yl)carbamoyl)-1-isopropyl-1H-pyrazole-3-sulfonamide]: not above 5000 nM; for `CC(=O)Nc1cc(-c2ccc3c(c2NC(=O)NS(=O)(=O)c2ccn(C(C)C)n2)CCC3)ccn1` [Example 297, N-(4-(4-(3-((1-Isopropyl-1H-pyrazol-3-yl)sulfonyl)ureido)-2,3-dihydro-1H-inden-5-yl)pyridin-2-yl)acetamide, sodium salt]: not above 1000 nM; for `CC(C)n1ccc(S(=O)(=O)NC(=O)Nc2c(-c3ccnc(OC4CCN(C)C4)c3)ccc3c2CCC3)n1` (centres unmarked) [Example 301, 1-Isopropyl-N-((5-(2-((1-methylpyrrolidin-3-yl)oxy)pyridin-4-yl)-2,3-dihydro-1H-inden-4-yl)carbamoyl)-1H-pyrazole-3-sulfonamide, sodium salt]: not above 1000 nM.

Regarding `CC(C)n1ccc(S(=O)(=O)NC(=O)Nc2c(-c3ccnc(OCCN(C)C)c3)ccc3c2CCC3)n1` [Example 302, N-((5-(2-(2-(Dimethylamino)ethoxy)pyridin-4-yl)-2,3-dihydro-1H-inden-4-yl)carbamoyl)-1-isopropyl-1H-pyrazole-3-sulfonamide, sodium salt], in assay [2], the IC50 is not above 5000 nM. The same measure, in the same setting: the same measure for `COc1cc(-c2ccc3c(c2NC(=O)NS(=O)(=O)c2ccc(C(=O)N(C)C)cc2)CCO3)ccn1` [Example 309, 4-(N-((5-(2-Methoxypyridyl-4-yl)-2,3-dihydrobenzofuran-4-yl)carbamoyl)sulfamoyl)-N,N-dimethylbenzamide, sodium salt]: not above 5000 nM; for `CC(C)c1cc(F)cc(-c2ccnc(C#N)c2)c1NC(=O)NS(=O)(=O)N1CC2CCN(C)C2C1` (centres unmarked) [Example 319, N-((2-(2-Cyanopyridin-4-yl)-4-fluoro-6-isopropylphenyl)carbamoyl)-1-methylhexahydropyrrolo[3,4-b]pyrrole-5(1H)-sulfonamide]: not above 10000 nM; for `COc1cc(-n2nc3c(c2NC(=O)NS(=O)(=O)c2cc(C(C)(C)O)co2)CCC3)ccn1` [Example 322, 4-(2-Hydroxypropan-2-yl)-N-((2-(2-methoxypyridin-4-yl)-2,4,5,6-tetrahydrocyclopenta[c]pyrazol-3-yl)carbamoyl)furan-2-sulfonamide]: not above 5000 nM.
